Measured values published in patent publication US6379670B1, “Methods for treatment of multiple sclerosis using peptide analogs of human myelin basic protein” (Neurocrine Biosciences, Inc., priority 1994, dated 2002).
Where “and” joins values, the source holds several entries; their conditions need not be identical. Equal values may be shown once. Non-standard residues stand in square brackets, D forms with d. No end group written: not given here.

Tests used:
[1] = system: Dr2a restricted human T cell clone reactive to MBP; assay: Human T cell proliferation, Dr2a restricted clone; type: cell-based
Description: Human T cells reactive to MBP (83-99) may alternatively be used to measure the ability of the peptide analog to inhibit proliferation of T cells induced by native MBP (83-99) peptide. MBP-specific T cells may be obtained as previously described by Martin et al., J. Immunol. 148:1359-1366, 1992. Briefly, T cell lines are established by culture of human T cells with irradiated, DR-matched peripheral blood cells in MEM supplemented with 2 mM L-glutamine, 50 μg/ml gentamicin, penicillin and streptomycin, 100 U/ml rIL-2, and 10% human AB negative serum. Proliferation of these T cell lines is stimulated by culturing a clone with varying concentration (1.1-30 μM) of native […] peptide, 50 μM of the peptide analog or SWM peptide, in the presence of irradiated, DR matched peripheral blood cells, following incubation for approximately 60 hours, the cells are pulsed with ^3H-thymidine for 12 hours and harvested. The amount of incorporated ^3H-thymidine is measured.
The ability of the peptide analogs NBI-5719, 5748, 5765, 5788 and 5789 (SEQ ID NOs: 4-8 respectively) to affect human T cell proliferation was assessed. […] The amount of tritiated thymidine incorporated was measured, and the data represented as the mean plus or minus the standard error of the mean of replicate samples.
The potency of NBI-5788 (SEQ ID NO:7) was then determined by varying concentrations of the APL. […]

[2] = system: peripheral blood cells of MS patients; assay: Frequency of APL-responsive peripheral blood T cells after dosing of MS patients (split-well); type: in vivo, human
Description: Patients received either 10 or 20 mg of APL NBI-5788 (weekly for four weeks). Peripheral blood cells were collected from four patients approximately one year after dosing, as well as from 14 MS patients who had not received the APL and from two normal, healthy volunteers. The frequency of response to the peptide was determined using the split-well technique. Cells were seeded in 48 wells/plate, as well as 12 control wells without antigenic stimulation, at a density of 1×10^5 cells/well. Cells were set up in IMDM+10% human plasma pool+penicillin/streptomycin 100 U/ml+gentamycin 50 μg/ml +2 mM L-glutamine (or complete media, CM). Peptide antigen (25 μg) was added and then included for no more than one feeding with media. At day 12, the medium was changed to CM without IL-2. Two days later, the split-wells were established. The wells were resuspended with a multichannel pipetor, 100 μl of the cell suspension was transferred to adjacent wells on a new plate (daughter plate) and mixed with 100 μl of media containing 1×10^5 antigen presenting cells (peripheral blood lymphocytes, PBL irradiated with 3000 R in CM with or without antigen; 25 μg/ml). After 48 hours of culturing, 100 μl of supernatant was removed from the daughter plate for later cytokine determination and stored at -70° C.
For the proliferation assay, ^3H-thymidine (0.5 μCi) was added to the daughter plate and the plates reincubated for an additional 8 hours. The wells were then harvested onto filter mats and the level of ^3H-thymidine incorporation determined using beta scintillation. Counts greater than three-fold over background were considered positive.

Substance: MBP(83-99) (83E>a, 84N>K, 89F>L, and 91K>A) ([dA]KPVVHLFANIVTPRTP) [NBI-5788]
- inhibition of proliferative response of Dr2a restricted T cell clone to MBP(83-99) ([1]; 50 μM peptide, MBP(83-99) 1.1-30 μM, FIGS. 13 and 14): inhibited the ability of a human Dr2a restricted T cell clone to respond
- inhibition of response of Dr2a T cell line to MBP(83-99), potency ([1]; APL 2, 10 or 50 μM, effect at both 10 and 50 μM, SWM 50 μM, FIG. 15): significantly altered the ability of the Dr2a T cell line to respond to MBP(83-99)
- Percent Reactivity (frequency of APL NBI-5788-reactive T cells) ([2]; 10 mg (n = 1)): 23%
- frequency of APL responsive wells (SI>3), individual patient ([2]; 10 mg weekly for four weeks, about one year after dosing): 23%
- Percent Reactivity (frequency of APL NBI-5788-reactive T cells) ([2]; 20 mg (n = 3)): 39 ± 18%
- frequency of APL responsive wells (SI>3), individual patients ([2]; 20 mg weekly for four weeks, about one year after dosing, listed as APL): 11% and 32% and 72%
- APL specific lines from treated patients cross reacting with native MBP (83-99) ([2]; human, in vivo): 6/31
- APL specific lines from treated patients reacting with whole MBP ([2]; human, in vivo): 4/31
